This is an account of results in publication PMC7570662, “In Vivo Pharmacokinetic Analysis Utilizing Non-Targeted and Targeted Mass Spectrometry and In Vitro Assay against Transient Receptor Potential Channels of Maobushisaishinto and Its Constituent Asiasari Radix” (Molecules, 2020).

The nature of data set [1]: Qualitative non-targeted LC-HRMS analysis of AR compounds in rat plasma after oral AR or MBST. The format is in vivo. As for the experimental part: Extract powders of AR or MBST were suspended in distilled water and orally administered to rats having fasted for approximately 16 h. The dose of AR was set at 2 g/kg, and the MBST doses were set at 1 and 2 g/kg. 1 g/kg MBST contained 578 µg/kg, 147 µg/kg, 226 µg/kg, 426 µg/kg asarinin, sesamin, methyl kakuol, and amide A, respectively. The doses were chosen based on a previous pharmacological study of MBST using rats.
According to previous pharmacokinetic studies of herbal medicines, many of the components were quickly absorbed into the bloodstream, thereby providing the rationale for a sampling time at 1 h. Blood was centrifuged at 1200× g at 4 °C for 30 min to obtain plasma; then, the sample was stored at −80 °C until LC-HRMS analysis. […]
The plasma samples were collected at 1 h after MBST administration in case of both the qualitative (non-targeted) analysis and the quantitative (targeted) analysis.
The plasma samples of AR- or MBST-treated rats collected at 1 h post-administration were pretreated by deproteinization using methanol before the LC-HRMS analysis as follows: 100 µL plasma sample was mixed with 500 µL methanol, and the resultant solution was vortexed for 2 min. The mixture was centrifuged at 7000× g at 4 °C for 5 min. The supernatant was dried using a centrifugal evaporator, and the dried residue was dissolved in 100 μL of the initial LC mobile phase which is composed of 0.1 vol% formic acid in water/acetonitrile (99.9/0.1, v/v) and recentrifuged at 7000× g at 4 °C for 5 min. Finally, a 5 μL aliquot of the supernatant was injected into the LC-HRMS system comprised of an Acquity Ultra-Performance Liquid Chromatography System (Waters, Milford, MA, USA) and a Xevo G2-XS quadrupole time-of-flight MS (Waters) and was chromatographically separated using an ACQUITY UPLC HSS T3 column (2.1 × 150 mm I.D., 1.8-μm particle size; Waters) with an ACQUITY UPLC HSS T3 VanGuard Pre-column (2.1 mm × 5 mm I.D., 1.8-μm particle size; Waters) at 40 °C. The mobile phase consisted of solution A (0.1% formic acid, v/v) and solution B (acetonitrile) with a gradient of solution B (0.1%, 0 min; 99%, 24 min; v/v) at a flow rate of 0.4 mL/min. The analysis of the mass spectrometer fit with an electrospray ionization probe with sensitivity mode was performed for both the positive and negative ion mode. The resolution of the mass spectrometer was set at >20,000. For MS^E experiments, two acquisition functions with different collision energies were created: a low-energy function with a collision energy of 6 eV and a high-energy function with collision energy ranging from 15 to 40 eV.

In the next data set the target is T1, human TRPA1 (Homo sapiens, UniProt O75762).
T1 construct: Each full-length human TRPA1, TRPV1, TRPV4, and TRPM8 coding regions were introduced into a pcDNA4/TO vector; expressed in transfected cells; host or cells: T-REx-293 cells (tetracycline-induced, pcDNA4/TO vector)
T1 sequence (O75762 whole entry): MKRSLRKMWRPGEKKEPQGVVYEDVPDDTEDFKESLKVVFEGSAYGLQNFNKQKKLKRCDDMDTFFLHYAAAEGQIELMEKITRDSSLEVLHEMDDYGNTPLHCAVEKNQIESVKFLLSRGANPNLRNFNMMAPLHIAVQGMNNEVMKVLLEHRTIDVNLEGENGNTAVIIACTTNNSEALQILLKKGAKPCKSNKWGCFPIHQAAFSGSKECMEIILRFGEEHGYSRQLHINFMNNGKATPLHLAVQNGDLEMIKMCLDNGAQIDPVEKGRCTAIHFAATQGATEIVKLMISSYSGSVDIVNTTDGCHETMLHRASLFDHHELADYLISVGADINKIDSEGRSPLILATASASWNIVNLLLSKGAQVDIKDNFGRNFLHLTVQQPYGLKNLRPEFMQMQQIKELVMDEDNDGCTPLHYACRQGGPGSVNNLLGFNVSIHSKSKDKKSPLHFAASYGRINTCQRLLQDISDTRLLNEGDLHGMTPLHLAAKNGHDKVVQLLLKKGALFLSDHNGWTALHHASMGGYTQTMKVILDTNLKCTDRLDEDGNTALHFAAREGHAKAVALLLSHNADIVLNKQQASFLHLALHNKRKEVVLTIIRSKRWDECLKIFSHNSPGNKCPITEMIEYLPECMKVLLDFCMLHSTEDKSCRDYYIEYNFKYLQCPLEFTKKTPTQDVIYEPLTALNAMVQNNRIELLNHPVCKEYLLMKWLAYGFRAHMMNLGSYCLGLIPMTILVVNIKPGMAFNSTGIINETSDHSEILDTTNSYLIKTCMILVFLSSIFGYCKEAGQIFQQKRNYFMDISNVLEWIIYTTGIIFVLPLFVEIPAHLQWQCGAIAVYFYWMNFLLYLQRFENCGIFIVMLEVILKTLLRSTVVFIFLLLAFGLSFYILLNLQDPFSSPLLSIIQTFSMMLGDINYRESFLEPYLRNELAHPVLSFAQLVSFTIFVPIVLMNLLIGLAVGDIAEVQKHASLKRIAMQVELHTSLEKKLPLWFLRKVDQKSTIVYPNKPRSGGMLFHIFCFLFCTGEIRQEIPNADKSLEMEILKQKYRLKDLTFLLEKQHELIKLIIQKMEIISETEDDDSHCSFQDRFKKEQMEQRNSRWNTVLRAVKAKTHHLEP
As to the kind of experiment: Ca2+ influx assay in TRPA1-expressing T-REx-293 cells. The format is cell-based. The conditions noted are these: 10 µmol/L test compound, relative to 20 µmol/L allyl isothiocyanate; for activation at 10 µM: T-REx-293, read-out: % of Activation Compared to Positive Control against Each Subfamily of TRP Channel TRPA1. As for the experimental part: (§1) Each full-length human TRPA1, TRPV1, TRPV4, and TRPM8 coding regions were introduced into a pcDNA4/TO vector (Thermo Fisher Scientific, Waltham, MA, USA) and transfected into T-REx-293 cells (Thermo Fisher Scientific) to obtain stable cell lines expressing human TRPA1, TRPV1, TRPV4, and TRPM8. Cells were cultured in DMEM with 10% FBS, 4 mmol/L L-glutamine, and penicillin/streptomycin.
(§2) Cells were suspended in medium with 1 µg/mL tetracycline and seeded in poly-D-lysine coated 96-well plate at 2.5 × 10^4 cells/well. After overnight culture, the cells were used for Ca^2+ influx assay.
(§3) The Ca^2+ influx assay was performed using a FLIPR Calcium 5 Assay Kit (Molecular Devices, Sunnyvale, CA, USA) according to previously reported methods with minor modifications. In brief, cells were incubated with 80 µL Ca^2+-chelating dye dissolved in assay buffer at pH 7.4 (Hanks’ Balanced Salt Solution containing 20 mmol/L of N-2-hydroxyethylpiperazine-N’-2-ethanesulfonic acid) at room temperature for 30 min. The plates were assayed using a FlexStation 3 Microplate Reader (Molecular Devices). The fluorescence intensity was traced entirely for 80 s. The baseline of fluorescence was measured for 20 s before adding 20 µL of test compound (final concentration, 10 µmol/L). The response was expressed as percentage activation using the relative fluorescence units (RFU) (% activation = 100 × ((RFUmax − RFUbaseline)/RFUbaseline) − 100). Furthermore, the activities of each test compound against several subfamilies of TRP channels were represented as the relative enhancement of Ca^2+ influx of each positive control, indicated as follows: 20 µmol/L of allyl isothiocyanate (an agonist of TRPA1), 2 µmol/L of capsaicin (an agonist of TRPV1), 4 µmol/L of GSK1016790A (an agonist of TRPV4), and 20 µmol/L of icilin (an agonist of TRPM8). The dose–response curve was fitted to the sigmoidal dose-response equation (top, the max response of each compound), and EC50 values were calculated using GraphPad Prism 7 software (GraphPad, San Diego, CA, USA).

The next data set addresses T2, human TRPV4 (Homo sapiens, UniProt Q9HBA0).
T2 construct: Each full-length human TRPA1, TRPV1, TRPV4, and TRPM8 coding regions were introduced into a pcDNA4/TO vector; expressed in transfected cells; host or cells: T-REx-293 cells (tetracycline-induced, pcDNA4/TO vector)
As to the kind of experiment: Ca2+ influx assay in TRPV4-expressing T-REx-293 cells. The format is cell-based. To be noted: 10 µmol/L test compound, relative to 4 µmol/L GSK1016790A; for activation at 10 µM: T-REx-293, read-out: % of Activation Compared to Positive Control against Each Subfamily of TRP Channel TRPV4. As for the experimental part: as §1, §2, §3

The next data set addresses T3, human TRPM8 (Homo sapiens, UniProt Q7Z2W7).
T3 construct: Each full-length human TRPA1, TRPV1, TRPV4, and TRPM8 coding regions were introduced into a pcDNA4/TO vector; expressed in transfected cells; host or cells: T-REx-293 cells (tetracycline-induced, pcDNA4/TO vector)
As to the kind of experiment: Ca2+ influx assay in TRPM8-expressing T-REx-293 cells. It counts as cell-based. The conditions noted are these: 10 µmol/L test compound, relative to 20 µmol/L icilin; for activation at 10 µM: T-REx-293, read-out: % of Activation Compared to Positive Control against Each Subfamily of TRP Channel TRPM8. As for the experimental part: as §1, §2, §3

In a further data set the target is T4, human TRPV1 (Homo sapiens, UniProt Q8NER1).
T4 construct: Each full-length human TRPA1, TRPV1, TRPV4, and TRPM8 coding regions were introduced into a pcDNA4/TO vector; expressed in transfected cells; host or cells: T-REx-293 cells (tetracycline-induced, pcDNA4/TO vector)
T4 sequence (Q8NER1 whole entry): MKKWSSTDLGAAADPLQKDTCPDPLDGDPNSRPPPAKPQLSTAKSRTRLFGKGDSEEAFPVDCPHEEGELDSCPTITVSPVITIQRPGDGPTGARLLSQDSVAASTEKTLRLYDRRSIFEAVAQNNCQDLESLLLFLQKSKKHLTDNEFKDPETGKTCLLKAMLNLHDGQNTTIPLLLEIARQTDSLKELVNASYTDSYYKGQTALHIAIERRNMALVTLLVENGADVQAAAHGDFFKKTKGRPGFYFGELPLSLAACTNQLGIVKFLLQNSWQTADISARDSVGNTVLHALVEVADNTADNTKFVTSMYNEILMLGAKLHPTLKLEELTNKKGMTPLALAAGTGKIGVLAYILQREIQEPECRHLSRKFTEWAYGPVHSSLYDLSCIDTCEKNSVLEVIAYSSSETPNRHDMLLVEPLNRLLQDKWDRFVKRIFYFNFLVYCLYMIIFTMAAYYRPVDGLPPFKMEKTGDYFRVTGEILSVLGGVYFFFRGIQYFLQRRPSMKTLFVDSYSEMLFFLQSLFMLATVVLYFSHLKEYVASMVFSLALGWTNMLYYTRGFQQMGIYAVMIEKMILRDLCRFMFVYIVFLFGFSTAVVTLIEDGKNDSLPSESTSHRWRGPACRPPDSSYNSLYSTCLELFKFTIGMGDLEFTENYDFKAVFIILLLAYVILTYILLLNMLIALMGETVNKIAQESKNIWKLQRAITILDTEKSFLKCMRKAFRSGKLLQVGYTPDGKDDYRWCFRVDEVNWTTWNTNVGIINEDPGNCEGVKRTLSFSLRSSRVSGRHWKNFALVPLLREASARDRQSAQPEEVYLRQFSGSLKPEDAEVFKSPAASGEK
As to the kind of experiment: Ca2+ influx assay in TRPV1-expressing T-REx-293 cells. It counts as cell-based. The conditions noted are these: 10 µmol/L test compound, relative to 2 µmol/L capsaicin; for activation at 10 µM: T-REx-293, read-out: % of Activation Compared to Positive Control against Each Subfamily of TRP Channel TRPV1. As for the experimental part: as §1, §2, §3

T3 sequence (Q7Z2W7 whole entry): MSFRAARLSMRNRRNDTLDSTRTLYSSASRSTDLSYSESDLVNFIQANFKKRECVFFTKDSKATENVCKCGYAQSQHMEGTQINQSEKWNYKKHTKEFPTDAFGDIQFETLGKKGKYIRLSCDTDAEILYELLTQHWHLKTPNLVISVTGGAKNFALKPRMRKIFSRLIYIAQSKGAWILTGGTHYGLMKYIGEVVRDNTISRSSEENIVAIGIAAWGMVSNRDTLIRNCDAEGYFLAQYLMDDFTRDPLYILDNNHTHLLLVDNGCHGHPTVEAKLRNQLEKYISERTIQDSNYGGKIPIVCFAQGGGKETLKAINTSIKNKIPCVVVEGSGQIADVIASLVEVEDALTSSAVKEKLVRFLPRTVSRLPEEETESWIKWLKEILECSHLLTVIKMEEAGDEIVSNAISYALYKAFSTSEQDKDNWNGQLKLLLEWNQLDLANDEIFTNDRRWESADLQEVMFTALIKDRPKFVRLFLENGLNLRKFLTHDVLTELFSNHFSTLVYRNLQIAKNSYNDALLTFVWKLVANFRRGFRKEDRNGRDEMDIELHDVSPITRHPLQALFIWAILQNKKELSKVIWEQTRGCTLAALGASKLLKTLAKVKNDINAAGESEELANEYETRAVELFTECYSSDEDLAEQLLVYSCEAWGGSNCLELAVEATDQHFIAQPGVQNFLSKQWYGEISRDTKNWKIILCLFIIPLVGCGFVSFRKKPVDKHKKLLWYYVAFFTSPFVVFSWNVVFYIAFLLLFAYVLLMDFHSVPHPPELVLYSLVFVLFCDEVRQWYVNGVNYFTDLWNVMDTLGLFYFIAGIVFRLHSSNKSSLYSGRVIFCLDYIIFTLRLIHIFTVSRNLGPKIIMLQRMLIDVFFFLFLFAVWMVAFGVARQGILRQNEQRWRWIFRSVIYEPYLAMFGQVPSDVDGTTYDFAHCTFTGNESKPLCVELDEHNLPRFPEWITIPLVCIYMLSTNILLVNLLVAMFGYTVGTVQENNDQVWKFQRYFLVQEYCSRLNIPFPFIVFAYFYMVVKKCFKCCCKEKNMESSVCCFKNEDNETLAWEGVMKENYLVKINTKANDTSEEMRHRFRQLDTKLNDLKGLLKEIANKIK
T2 sequence (Q9HBA0 whole entry): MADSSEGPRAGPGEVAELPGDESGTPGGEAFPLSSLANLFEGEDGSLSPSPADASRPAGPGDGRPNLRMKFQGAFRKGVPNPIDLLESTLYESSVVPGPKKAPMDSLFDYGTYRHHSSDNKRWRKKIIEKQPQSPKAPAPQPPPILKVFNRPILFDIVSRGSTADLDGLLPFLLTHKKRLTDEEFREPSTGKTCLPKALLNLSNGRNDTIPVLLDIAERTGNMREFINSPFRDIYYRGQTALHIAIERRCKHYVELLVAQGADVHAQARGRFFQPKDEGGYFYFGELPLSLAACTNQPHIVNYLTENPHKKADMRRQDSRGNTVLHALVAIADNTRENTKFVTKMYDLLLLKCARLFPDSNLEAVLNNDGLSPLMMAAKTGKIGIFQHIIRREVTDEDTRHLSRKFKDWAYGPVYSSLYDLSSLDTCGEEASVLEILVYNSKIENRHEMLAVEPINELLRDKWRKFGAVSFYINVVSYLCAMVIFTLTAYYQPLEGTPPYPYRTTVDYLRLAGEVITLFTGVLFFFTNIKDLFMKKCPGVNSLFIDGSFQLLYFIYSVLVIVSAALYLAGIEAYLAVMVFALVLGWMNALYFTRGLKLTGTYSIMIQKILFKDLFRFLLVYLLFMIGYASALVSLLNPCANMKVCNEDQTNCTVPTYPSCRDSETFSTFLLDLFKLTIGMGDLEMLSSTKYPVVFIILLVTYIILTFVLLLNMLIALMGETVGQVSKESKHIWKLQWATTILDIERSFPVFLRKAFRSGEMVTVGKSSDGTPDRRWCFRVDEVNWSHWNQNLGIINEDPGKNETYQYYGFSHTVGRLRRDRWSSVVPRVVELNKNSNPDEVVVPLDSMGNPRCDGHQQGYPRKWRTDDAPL

As for `COc1cc(O)cc2c1cc([N+](=O)[O-])c1c(C(=O)O)cc3c(c12)OCO3` [Aristolochic acid Iva], in data set [1] (rat plasma 1 h after oral 2 g/kg AR, n = 1, LC-HRMS), the “AR-Treated Rat Plasma (detection of compound)” value is “+ (The number of plus signs represents the sample number in which the compound was detected among AR-treated rat plasma (n = 1) and MBST-treated rat plasma (n = 3))”. In addition, the “MBST-Treated Rat Plasma (detection of compound)” value in data set [1] (rat plasma 1 h after oral 2 g/kg MBST, n = 3, LC-HRMS) is “+ + + (The number of plus signs represents the sample number in which the compound was detected among AR-treated rat plasma (n = 1) and MBST-treated rat plasma (n = 3))”.
As to `CC(C(O)c1ccccc1)[N+](C)(C)[O-]` (stereo not drawn) [Methylephedrine N-oxide], on human TRPA1, the “% of Activation Compared to Positive Control against Each Subfamily of TRP Channel TRPA1” value was found to be 21%. Moreover, at human TRPV4, the “% of Activation Compared to Positive Control against Each Subfamily of TRP Channel TRPV4” value was determined as 1.8%. Also, the “% of Activation Compared to Positive Control against Each Subfamily of TRP Channel TRPM8” value at human TRPM8 amounted to 4.5%. Moreover, the “% of Activation Compared to Positive Control against Each Subfamily of TRP Channel TRPV1” value on human TRPV1 is recorded as 0.3%.
Consider `Oc1cc(O)c2c(c1)O[C@H](c1cc(O)c(O)c(O)c1)[C@H](O)C2` [Epigallocatechin], for which the activation at 10 µM on human TRPA1 is 2%; on human TRPV4 it was 0.1%; on human TRPM8, 4.8%; at human TRPV1, -0.2%.
Consider Neoline, for which, on human TRPA1, the “% of Activation Compared to Positive Control against Each Subfamily of TRP Channel TRPA1” value is recorded as 5%. On human TRPV4, the “% of Activation Compared to Positive Control against Each Subfamily of TRP Channel TRPV4” value turned out to be 0.5%. In addition, the “% of Activation Compared to Positive Control against Each Subfamily of TRP Channel TRPM8” value at human TRPM8 was 5.0%. On human TRPV1, the “% of Activation Compared to Positive Control against Each Subfamily of TRP Channel TRPV1” value was −0.4%.
For `O=c1cc(-c2ccc(O)cc2)oc2c([C@@H]3O[C@H](CO)[C@@H](O)[C@H](O)[C@H]3O)c(O)c([C@@H]3O[C@H](CO)[C@@H](O)[C@H](O)[C@H]3O)c(O)c12` [Vicenin-2], in that order: 25%, 5.0%, 6.5% and 1.8%.
Regarding `CN[C@@H](C)[C@@H](O)c1ccccc1` [Pseudoephedrine, (S,S)-(+)-pseudoephedrine, reference compound], the activation at 10 µM on human TRPA1 is 4%; at human TRPV4, -0.3%; at human TRPM8 it was 2.8%; on human TRPV1 it was -0.2%.
For the compound `CN[C@@H](C)[C@H](O)c1ccccc1` [Ephedrine, (1R,2S)-(−)-Ephedrine, reference compound], the activation at 10 µM at human TRPA1 is 3%; on human TRPV4 it was -0.4%; at human TRPM8, 3.2%; on human TRPV1, -0.5%.
In the case of `O.Oc1cc(O)c2c(c1)O[C@H](c1ccc(O)c(O)c1)[C@@H](O)C2` [Catechin], on human TRPA1, the “% of Activation Compared to Positive Control against Each Subfamily of TRP Channel TRPA1” value is given as 6%. Also, the “% of Activation Compared to Positive Control against Each Subfamily of TRP Channel TRPV4” value at human TRPV4 was 0.3%. Besides, the “% of Activation Compared to Positive Control against Each Subfamily of TRP Channel TRPM8” value at human TRPM8 was found to be 4.0%. Besides, the “% of Activation Compared to Positive Control against Each Subfamily of TRP Channel TRPV1” value at human TRPV1 is on record as −0.3%.
On to `Oc1cc(O)c2c(c1)O[C@H](c1ccc(O)c(O)c1)[C@H](O)C2` [Epicatechin], for which the activation at 10 µM stood at 6% at human TRPA1, 0.6% on human TRPV4, 4.2% on human TRPM8 and 0% at human TRPV1.
`C=C1[C@H]2C[C@@H]3[C@H]4N5C[C@@]6(C)[C@H]7[C@@H]5C[C@]3([C@@H]1O)[C@@](O)(C2)[C@]74C[C@@H](OC(=O)c1ccccc1)[C@@H]6O` [Ignavine]: the “% of Activation Compared to Positive Control against Each Subfamily of TRP Channel TRPA1” value at human TRPA1 is 2%. Also, the “% of Activation Compared to Positive Control against Each Subfamily of TRP Channel TRPV4” value on human TRPV4 is on record as −0.1%. For the same compound, the “% of Activation Compared to Positive Control against Each Subfamily of TRP Channel TRPM8” value on human TRPM8 came out at 1.8%. The “% of Activation Compared to Positive Control against Each Subfamily of TRP Channel TRPV1” value at human TRPV1 is recorded as −0.2%.
With `O=c1cc(-c2ccc(O)cc2)oc2cc(O)c([C@@H]3O[C@H](CO)[C@@H](O)[C@H](O)[C@H]3O)c(O)c12` [Isovitexin], the activation at 10 µM was determined as 18% on human TRPA1, 2.3% on human TRPV4, 4.3% on human TRPM8 and 0.2% on human TRPV1.
Regarding “(1R,2S)-(−)-N-methylephedrine [reference compound]”, the “% of Activation Compared to Positive Control against Each Subfamily of TRP Channel TRPA1” value at human TRPA1 was 3%. Besides, on human TRPV4, the “% of Activation Compared to Positive Control against Each Subfamily of TRP Channel TRPV4” value is given as −0.1%. For the same compound, the “% of Activation Compared to Positive Control against Each Subfamily of TRP Channel TRPM8” value on human TRPM8 was determined as 3.6%. Also, the “% of Activation Compared to Positive Control against Each Subfamily of TRP Channel TRPV1” value at human TRPV1 was −0.4%.
Turning to `O=C(O)CNC(=O)c1ccccc1` [Hippuric acid], the activation at 10 µM on human TRPA1 turned out to be 13%; on human TRPV4, 2.8%; at human TRPM8, 7.5%; at human TRPV1, 1%.
Consider `CCN1C[C@]2(COC)[C@H](O)C[C@H](OC)[C@@]34[C@@H]5C[C@@]6(O)[C@H](OC(=O)c7ccccc7)[C@@H]5[C@@](O)([C@@H]([C@H](OC)[C@H]23)[C@@H]14)[C@@H](O)[C@@H]6OC` [Benzoylaconitine], for which the “% of Activation Compared to Positive Control against Each Subfamily of TRP Channel TRPA1” value on human TRPA1 was found to be 3%. In addition, the “% of Activation Compared to Positive Control against Each Subfamily of TRP Channel TRPV4” value on human TRPV4 is 0.0%. Moreover, the “% of Activation Compared to Positive Control against Each Subfamily of TRP Channel TRPM8” value at human TRPM8 is 3.6%. The “% of Activation Compared to Positive Control against Each Subfamily of TRP Channel TRPV1” value at human TRPV1 is −0.2%.
